Each molecule was assayed against T1, human P2X7 receptor (Homo sapiens, UniProt Q99572) (assay: Ethidium Accumulation Assay). Settings: HEK293 cells stably expressing human recombinant P2X7 receptors; 1 mM ATP; values given as 'about'; read-out: pIC50 for human P2X7 receptor antagonist activity (blocking ATP responses) in the Ethidium Accumulation Assay (converted).
T1 construct: expressed in transfected cells
T1 sequence (Q99572 1-595): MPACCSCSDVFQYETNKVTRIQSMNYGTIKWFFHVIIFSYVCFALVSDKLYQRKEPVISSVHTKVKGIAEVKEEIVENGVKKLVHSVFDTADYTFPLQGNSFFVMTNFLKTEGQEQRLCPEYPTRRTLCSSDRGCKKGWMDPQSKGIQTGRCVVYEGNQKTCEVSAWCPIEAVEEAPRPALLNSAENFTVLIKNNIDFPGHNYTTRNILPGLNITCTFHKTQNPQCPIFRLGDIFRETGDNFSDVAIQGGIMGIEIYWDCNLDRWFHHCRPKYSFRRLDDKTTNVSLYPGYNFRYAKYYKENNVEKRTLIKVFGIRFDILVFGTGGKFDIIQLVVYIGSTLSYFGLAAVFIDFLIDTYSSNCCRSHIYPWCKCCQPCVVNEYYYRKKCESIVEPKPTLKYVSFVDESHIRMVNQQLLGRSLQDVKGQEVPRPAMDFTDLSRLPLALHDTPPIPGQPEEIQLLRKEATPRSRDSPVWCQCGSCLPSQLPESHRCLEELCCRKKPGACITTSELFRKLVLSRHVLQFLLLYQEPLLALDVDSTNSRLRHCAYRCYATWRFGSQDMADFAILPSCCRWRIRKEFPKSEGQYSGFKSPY
Assay type: cell-based
Protocol: Studies were performed using NaCl assay buffer of the following composition: 140 mM NaCl, 10 mM HEPES [4-(2-hydroxyethyl)-1-piperazine-1-ethanesulfonic acid], 5 mM N-methyl-D-glucamine, 5.6 mM KCl, 10 mM D-glucose, 0.5 mM CaCl2 (pH 7.4).
Human Embryonic Kidney (HEK) 293 cells, stably expressing human recombinant P2X7 receptors, were grown in poly-D-lysine pre-treated 96 well plates for 18-24 hours. […] The cells were washed twice with 350 μl of the assay buffer, before addition of 50 μl of the assay buffer containing the putative P2X7 receptor antagonist compound. (A small amount of dimethyl sulfoxide, for initially dissolving the compound, is optionally used and present in this 50 μl test compound sample.) The cells were then incubated at room temperature (19-21° C.) for 30 min before addition of ATP and ethidium (100 μM final assay concentration). The ATP concentration was chosen to be close to the EC80 for the receptor type and was 1 mM for studies on the human P2X7 receptor. Incubations were continued for 8 or 16 min and were terminated by addition of 25 μl of 1.3M sucrose containing 4 mM of the P2X7 receptor antagonist Reactive Black 5 (Aldrich). […] Antagonist pIC50 values for blocking ATP responses were determined using iterative curve fitting techniques.

IC50 [nM] | SMILES
5.01 to 200 | O=C(c1cccc(C(F)(F)F)c1Cl)N1CCN(c2ccccc2Cl)C(=O)C1 [Example 9, 1-(2-Chlorophenyl)-4-{[2-chloro-3-(trifluoromethyl)phenyl]carbonyl}-2-piperazinone]
2.51 to 100 | CC(C)Oc1cc(F)ccc1N1CCN(C(=O)c2cccc(Cl)c2Cl)CC1=O [Example 58, 4-[(2,3-dichlorophenyl)carbonyl]-1-{4-fluoro-2-[(1-methylethyl)oxy]phenyl}-2-piperazinone]
5.01 to 200 | O=C(c1cccc(Cl)c1Cl)N1CCN(c2ccc(F)cc2Cl)C(=O)C1 [Example 11, 1-(2-Chloro-4-fluorophenyl)-4-[(2,3-dichlorophenyl)carbonyl]-2-piperazinone]
2.51 to 100 | O=C(c1cccc(Cl)c1Cl)N1CCN(c2cc(N3CCOCC3)ccc2Cl)C(=O)C1 [Example 76, 1-[2-chloro-5-(4-morpholinyl)phenyl]-4-[(2,3-dichlorophenyl)carbonyl]-2-piperazinone]
2.51 to 100 | O=C(c1cccc(C(F)(F)F)c1Cl)N1CCN(c2ccc(F)cc2F)C(=O)C1 [Example 21, 4-{[2-chloro-3-(trifluoromethyl)phenyl]carbonyl}-1-(2,4-difluorophenyl)-2-piperazinone]
2.51 to 100 | Cc1c(N2CCOCC2)cccc1N1CCN(C(=O)c2cccc(C(F)(F)F)c2Cl)CC1=O [Example 81, 4-{[2-chloro-3-(trifluoromethyl)phenyl]carbonyl}-1-[2-methyl-3-(4-morpholinyl)phenyl]-2-piperazinone]
2.51 to 100 | Cc1ccc(N2CCOCC2)cc1N1CCN(C(=O)c2cccc(C(F)(F)F)c2Cl)CC1=O [Example 55, 4-{[2-chloro-3-(trifluoromethyl)phenyl]carbonyl}-1-[2-methyl-5-(4-morpholinyl)phenyl]-2-piperazinone]
2.51 to 100 | O=C(c1c(Cl)cccc1Cl)N1CCN(c2ccc(F)cc2Cl)C(=O)C1 [Example 31, 1-(2-chloro-4-fluorophenyl)-4-[(2,6-dichlorophenyl)carbonyl]-2-piperazinone]
2.51 to 100 | CC(C)CN1CCN(C(=O)c2cccc(Cl)c2Cl)CC1=O [Example 39, 4-[(2,3-dichlorophenyl)carbonyl]-1-(2-methylpropyl)-2-piperazinone]
2.51 to 100 | Cc1cc(F)ccc1N1CCN(C(=O)c2cccc(Cl)c2Cl)CC1=O [Example 28, 4-[(2,3-dichlorophenyl)carbonyl]-1-(4-fluoro-2-methylphenyl)-2-piperazinone]
2.51 to 100 | Cc1c(N2CCCC2)cccc1N1CCN(C(=O)c2cccc(C(F)(F)F)c2Cl)CC1=O [Example 75, 4-{[2-chloro-3-(trifluoromethyl)phenyl]carbonyl}-1-[2-methyl-3-(1-pyrrolidinyl)phenyl]-2-piperazinone]
2.51 to 100 | O=C(c1cccc(Cl)c1Cl)N1CCN(c2cccc3ccccc23)C(=O)C1 [Example 22, 4-[(2,3-dichlorophenyl)carbonyl]-1-(1-naphthalenyl)-2-piperazinone]
2.51 to 100 | CC(C)c1ccccc1N1CCN(C(=O)c2cccc(Cl)c2Cl)CC1=O [Example 27, 4-[(2,3-dichlorophenyl)carbonyl]-1-[2-(1-methylethyl)phenyl]-2-piperazinone]
2.51 to 100 | CC(c1ccccc1)N1CCN(C(=O)c2cccc(C(F)(F)F)c2Cl)CC1=O (stereo not drawn) [Example 85, 4-{[2-chloro-3-(trifluoromethyl)phenyl]carbonyl}-1-(1-phenylethyl)-2-piperazinone]
2.51 to 100 | O=C(c1cccc(C(F)(F)F)c1Cl)N1CCN(c2cccc(N3CCOCC3)c2Cl)C(=O)C1 [Example 79, 1-[2-chloro-3-(4-morpholinyl)phenyl]-4-{[2-chloro-3-(trifluoromethyl)phenyl]carbonyl}-2-piperazinone]
2.51 to 100 | Cc1ccc(N2CCC(O)C2)cc1N1CCN(C(=O)c2cccc(C(F)(F)F)c2Cl)CC1=O (stereo not drawn) [Example 83, 4-{[2-chloro-3-(trifluoromethyl)phenyl]carbonyl}-1-[5-(3-hydroxy-1-pyrrolidinyl)-2-methylphenyl]-2-piperazinone]
5.01 to 200 | O=C(c1ccc(Cl)cc1Cl)N1CCN(c2ccccc2Cl)C(=O)C1 [Example 8, 1-(2-Chlorophenyl)-4-[(2,4-dichlorophenyl)carbonyl]-2-piperazinone]
5.01 to 200 | O=C(c1cccc(Cl)c1Cl)N1CCN(c2ccc(F)cc2F)C(=O)C1 [Example 19, 4-[(2,3-Dichlorophenyl)carbonyl]-1-(2,4-difluorophenyl)-2-piperazinone]
2.51 to 100 | CN1CCN(C(=O)c2cccc(C(F)(F)F)c2Cl)CC1=O [Example 35, 4-{[2-chloro-3-(trifluoromethyl)phenyl]carbonyl}-1-methyl-2-piperazinon]
2.51 to 100 | Cc1c(N2CCOCC2)cccc1N1CCN(C(=O)c2c(Cl)cc(Cl)cc2Cl)CC1=O [Example 82, 1-[2-methyl-3-(4-morpholinyl)phenyl]-4-[(2,4,6-trichlorophenyl)carbonyl]-2-piperazinone]
2.51 to 100 | Cc1ccc(-c2cccc(N3CCN(C(=O)c4cccc(C(F)(F)F)c4Cl)CC3=O)c2C)cn1 [Example 84, 4-{[2-chloro-3-(trifluoromethyl)phenyl]carbonyl}-1-[2-methyl-3-(6-methyl-3-pyridinyl)phenyl]-2-piperazinone]
2.51 to 100 | Cc1c(Br)cccc1N1CCN(C(=O)c2cccc(C(F)(F)F)c2Cl)CC1=O [Example 46, 1-(3-bromo-2-methylphenyl)-4-{[2-chloro-3-(trifluoromethyl)phenyl]carbonyl}-2-piperazinone]
5.01 to 200 | O=C(c1cccc(Cl)c1Cl)N1CCN(c2ccccc2Cl)C(=O)C1 [Example 6, 1-(2-Dichlorophenyl)-4-[(2,3-dichlorophenyl)carbonyl]-2-piperazinone]
2.51 to 100 | Cc1cccc(C(=O)N2CCN(c3ccc(F)cc3Cl)C(=O)C2)c1Cl [Example 30, 1-(2-chloro-4-fluorophenyl)-4-[(2-chloro-3-methylphenyl)carbonyl]-2-piperazinone]
5.01 to 200 | O=C1CN(C(=O)c2cccc(Cl)c2Cl)CCN1Cc1ccc(F)cc1Cl [Example 15, 1-[(2-Chloro-4-fluorophenyl)methyl]-4-[(2,3-dichlorophenyl)carbonyl]-2-piperazinone]
5.01 to 200 | Cc1ccccc1N1CCN(C(=O)c2cccc(C(F)(F)F)c2Cl)CC1=O [Example 1, 4-{[2-Chloro-3-(trifluoromethyl)phenyl]carbonyl}-1-(2-methylphenyl)-2-piperazinone]
2.51 to 100 | N#Cc1cc(F)ccc1N1CCN(C(=O)c2cccc(C(F)(F)F)c2Cl)CC1=O [Example 50, 2-(4-{[2-chloro-3-(trifluoromethyl)phenyl]carbonyl}-2-oxo-1-piperazinyl)-5-fluorobenzonitrile]
5.01 to 200 | O=C(c1ccc(F)cc1Cl)N1CCN(c2ccccc2Cl)C(=O)C1 [Example 5, 4-[(2-Chloro-4-fluorophenyl)carbonyl]-1-(2-chlorophenyl)-2-piperazinone]
2.51 to 100 | Cc1ccc(N2CCCC2)cc1N1CCN(C(=O)c2cccc(C(F)(F)F)c2Cl)CC1=O [Example 73, 4-{[2-chloro-3-(trifluoromethyl)phenyl]carbonyl}-1-[2-methyl-5-(1-pyrrolidinyl)phenyl]-2-piperazinone]
2.51 to 100 | O=C(c1cccc(C(F)(F)F)c1Cl)N1CCN(c2cc(N3CCOCC3)ccc2Cl)C(=O)C1 [Example 78, 1-[2-chloro-5-(4-morpholinyl)phenyl]-4-{[2-chloro-3-(trifluoromethyl)phenyl]-carbonyl}-2-piperazinone]
